Assay results published in the OPERA property sets (Mansouri et al. 2018).

Settings: not given

SMILES | melting point | boiling point | log10 Henry constant (atm·m³/mol) | log10 vapour pressure (mmHg) | ready biodegradability | log10 Koc (L/kg)
C[C@]12CC[C@H](O)C[C@H]1CC[C@@H]1[C@@H]2CC[C@]2(C)[C@@H](C3=CC(=O)OC3)CC[C@]12O | 253 °C | – | – | – | – | –
Nc1c(Br)cccc1Br | 87.5 °C | 263 °C | – | – | – | –
CCCCCCCCCCCCC/C=C/[C@@H](O)[C@@H](N)CO | 67 °C | – | – | – | – | –
CC(=O)OCCOCCOCCOC(C)=O | -50 °C | 286 °C | – | – | – | –
CC1=C[C@H](O)CC(C)(C)[C@H]1/C=C/C(C)=C/C=C/C(C)=C/C=C/C=C(C)/C=C/C=C(C)/C=C/C1=C(C)C[C@@H](O)CC1(C)C | 196 °C | – | – | – | – | –
Cc1cc([N+](=O)[O-])ccc1Cl | 42.5 °C | 249 °C | – | – | – | –
Cc1nn(C)c(Oc2ccccc2)c1C=NOCc1ccc(C(=O)OC(C)(C)C)cc1 | 102 °C | – | – | – | – | –
OCC(O)CO | 18.2 °C | 290 °C | -7.76 | -3.77 | readily biodegradable | –
O=[N+]([O-])c1cccc(C(F)(F)F)c1 | -2.4 °C | 203 °C | – | -0.587 | – | –
CN(C)C(=O)Nc1cc(C(C)(C)C)on1 | 120 °C | – | – | -6.42 | readily biodegradable | 2.47
CC(C)(C)OO | -8 °C | – | – | 0.738 | not readily biodegradable | –
CC(C)COc1ccc2ccccc2c1 | 31 °C | – | – | – | not readily biodegradable | –
CCOP(=S)(OCC)SC(CCl)N1C(=O)c2ccccc2C1=O (stereo not given) | 68 °C | – | – | -7.21 | – | –
Cc1ccc(NC2=NCCN2)c(Cl)c1 | 149 °C | – | – | – | – | –
CCCCCCl | -99 °C | 108 °C | -1.62 | 1.52 | – | –
CCOC(=O)CI | – | 179 °C | – | -0.195 | – | –
C#CC | -103 °C | -23.2 °C | – | 3.63 | – | –
C[C@@H]1CC[C@@]2(OC1)O[C@H]1C[C@H]3[C@@H]4CC=C5C[C@@H](O)CC[C@]5(C)[C@H]4CC[C@]3(C)[C@H]1[C@@H]2C | 206 °C | – | – | – | – | –
COc1cc(Cl)cc(OC)c1 | 35 °C | 234 °C | – | – | – | –
O=C(O)Cc1ccc([N+](=O)[O-])cc1 | 154 °C | – | – | – | – | –
Cc1c(C)c(O)c(C)c(C)c1O | 233 °C | – | – | – | – | –
CCC(C)[N+](=O)[O-] (stereo not given) | – | 140 °C | – | 0.891 | – | –
CC1=CCC2CC1C2(C)C (racemic) | -60.5 °C | 156 °C | – | – | – | –
CC(O)CC(F)(F)F (stereo not given) | – | 99.8 °C | – | – | – | –

SMILES | melting point | boiling point | log10 Henry constant (atm·m³/mol) | log10 vapour pressure (mmHg) | ready biodegradability | log10 Koc (L/kg)
CC1CC(C)(C)CC(OOC(C)(C)C)(OOC(C)(C)C)C1 (stereo not given) | -30 °C | – | – | – | not readily biodegradable | –
OCCCBr | – | – | – | -1 | – | –
CCS(=O)(=O)c1ccc(F)cc1 | 41 °C | – | – | – | – | –
C[N+]12CCC(CC1)C(OC(=O)C(O)(c1ccccc1)c1ccccc1)C2.[Br-] (stereo not given) | 240 °C | – | – | – | – | –
Nc1cccc(F)c1 | -5 °C | 188 °C | – | – | – | –
CCCCC(C(=O)OCC)C(=O)OCC | – | 238 °C | – | – | – | –
CN(C)CC#N | – | 138 °C | – | – | – | –
C=C(C)C(=O)OC1CCCCC1 | – | – | – | – | readily biodegradable | –
CNC[C@H](O)c1ccc(O)c(O)c1 | 212 °C | – | – | – | – | –
CC(=O)Oc1ccc(-c2ccccc2)cc1 | 89 °C | – | – | – | – | –
COC(=O)Nc1nc2ccccc2[nH]1 | – | – | – | -9.12 | not readily biodegradable | 2.35
Fc1cccc(F)c1-c1nnc(-c2ccccc2Cl)nn1 | 188 °C | – | – | – | – | –
C[C@@H](CN1CC(=O)NC(=O)C1)N1CC(=O)NC(=O)C1 | 238 °C | – | – | – | – | –
N#CCCCCC#N | 1 °C | 295 °C | – | -3.17 | readily biodegradable | –
CCCC=CC=O | – | – | -4.31 | – | – | –
CCCCCCCCCCCCCCCCCN | 49 °C | 336 °C | – | – | – | –
CCCCCCCCCCCCCCCCCCCC(=O)O | 75.4 °C | 328 °C | – | -8.74 | – | –
Cc1ccc(C(=O)c2ccccc2)cc1C | 47.5 °C | 341 °C | – | – | – | –
Cc1cc([N+](=O)[O-])ccc1N | 134 °C | – | – | – | – | –
CCc1c(C)cccc1C | -16.2 °C | 190 °C | – | -0.132 | – | –
CCCCCCC(O)CCCCCCCCCCC(=O)O (stereo not given) | – | – | – | – | readily biodegradable | –
N#Cc1ccc2ccccc2c1 | 66 °C | 306 °C | – | – | – | –
C#C[C@]1(O)CC[C@H]2[C@@H]3CCc4cc(O)ccc4[C@H]3CC[C@@]21C | 183 °C | – | – | – | – | –
CCCCCCCCCC1CCCCC1 | -10 °C | 282 °C | – | -2.61 | – | –

SMILES | melting point | boiling point | log10 Henry constant (atm·m³/mol) | log10 vapour pressure (mmHg) | ready biodegradability | log10 Koc (L/kg)
Oc1c(I)cc(I)cc1I | 160 °C | – | – | – | – | –
c1ccc(Cn2cccc2)cc1 | 15 °C | 247 °C | – | – | – | –
CC(=O)Nc1cccc(C(F)(F)F)c1 | 104 °C | – | – | – | – | 1.75
NS(=O)(=O)c1ccc(CCCCO)cc1 | 78.5 °C | – | – | – | – | –
CCCCC[C@H](O)/C=C/[C@@H]1[C@@H](C/C=C\CCCC(=O)O)[C@@H](O)C[C@H]1O | 30 °C | – | – | – | – | –
O=C1C(O)=C(C2CCCCC2)C(=O)c2ccccc21 | 136 °C | – | – | – | – | –
COC(=O)[C@@H]1[C@H]2C[C@H]3c4[nH]c5ccccc5c4CCN3C[C@@H]2CC[C@@H]1O | 251 °C | – | – | – | – | –
CCCCNC(=O)c1ccc2cc(O)c(O)cc2c1 | 194 °C | – | – | – | – | –
CCC(C)(C)c1ccc(O)cc1 | 95 °C | 262 °C | – | -2.7 | – | –
CC1CC=CC1 | -161 °C | 65.7 °C | – | – | – | –
O=C(C(Br)Br)C(Br)(Br)Br | 79.5 °C | – | – | – | – | –
CC=Cc1cccc(OC)c1O | 81 °C | 268 °C | – | – | – | –
Oc1ccc2c(c1)[C@@]13CCCC[C@H]1[C@@H](C2)NCC3 | 271 °C | – | – | – | – | –
FCCCF | – | 41.6 °C | – | – | – | –
COc1c(Cl)c(Cl)c(Cl)c(Cl)c1OC | 90 °C | – | – | – | – | –
CCCCCCCCC(=O)O | 12.3 °C | 254 °C | – | -2.78 | readily biodegradable | –
O=C1NC(=O)C(c2ccccc2)(c2ccccc2)N1 | 296 °C | – | – | – | not readily biodegradable | –
NC(=O)Nc1cccc2ccccc12 | 220 °C | – | – | – | – | –
CCCCC(CC)CNC1CCCCC1 (stereo not given) | – | 270 °C | – | – | – | –
NC(=O)c1ccccc1Cl | 143 °C | – | – | – | – | 1.51
CSc1ccccc1N | – | 234 °C | – | – | – | –
O=S(=O)(c1ccc(Cl)cc1)c1cc(Cl)c(Cl)cc1Cl | 147 °C | – | – | -9.62 | not readily biodegradable | –
CCOC(=O)C1(C(=O)OCC)CCC1 | – | 224 °C | – | – | – | –
c1ccc(-c2nc3ccccc3s2)cc1 | 115 °C | 371 °C | – | – | – | –

SMILES | melting point | boiling point | log10 Henry constant (atm·m³/mol) | log10 vapour pressure (mmHg) | ready biodegradability | log10 Koc (L/kg)
CC(C)(O)CCl | -20 °C | 128 °C | – | – | – | –
FCCC(F)(F)F | – | 29.4 °C | – | – | – | –
Cc1ccc(C(C)C)cc1O | 1 °C | 238 °C | – | – | – | –
CC(C)(CC(=O)O)CC(=O)O | 104 °C | – | – | – | – | –
O=C1NC(=O)c2ccccc21 | 238 °C | – | – | – | readily biodegradable | –
Cc1ccc[n+]([O-])c1 | 39 °C | – | – | – | – | –
O=C(O)c1cc(-c2ccccc2)nc2ccccc12 | 214 °C | – | – | – | – | –
CC(C)(C)CCl | -20 °C | 84.3 °C | – | – | – | –
CCCC(C)(O)CCC | -82 °C | 161 °C | – | – | – | –
O=C(Nc1cccc2ccccc12)c1ccccc1C(=O)[O][Na] | – | – | – | – | – | 3.34
COC(C)OC | -113 °C | 64.5 °C | – | 2.23 | – | –
CNc1ccc(C(=O)O)cc1 | – | – | – | – | not readily biodegradable | –
CC(C)/N=c1/cc2n(-c3ccc(Cl)cc3)c3ccccc3nc-2cc1Nc1ccc(Cl)cc1 | 211 °C | – | – | – | – | –
O=C(O)CSCc1ccccc1 | 61 °C | – | – | – | – | –
c1ccn2cccc2c1 | 75 °C | 205 °C | – | – | – | –
CCCCCCCCl | -69.5 °C | 159 °C | – | 0.451 | – | –
OCC(S)CS (stereo not given) | – | – | – | -2.3 | – | –
NC(=O)OCC(O)COc1ccc(Cl)cc1 (stereo not given) | 90 °C | – | – | – | – | –
Clc1cc(Cl)c2c(c1)oc1c(Cl)cc(Cl)cc12 | 177 °C | – | – | -7.57 | – | –
CC(C)NCc1ccccc1 | – | 200 °C | – | – | – | –
O=C/C(Cl)=C(/Cl)C(=O)O | 127 °C | – | – | – | – | –
CCCCCC(=O)OCCC | -68.7 °C | 187 °C | – | – | – | –
COc1ccc(-c2cc(=O)c3c(O)cc(O)cc3o2)cc1 | 263 °C | – | – | – | – | –

Same assay, conditions: fish

SMILES | log10 BCF | log10 biotransformation half-life (days)
CC(C)COc1ccc2ccccc2c1 | 2.8 | 0.23
CC1CC(C)(C)CC(OOC(C)(C)C)(OOC(C)(C)C)C1 (stereo not given) | 3.96 | –
CCCCCC(C)CCCC(C)C (stereo not given) | – | 1.02
COC(=O)Nc1nc2ccccc2[nH]1 | 0.4 | –
ClC(Cl)=C(Cl)c1c(Cl)c(Cl)c(Cl)c(Cl)c1Cl | 3.91 | 2.04
CNc1ccc(C(=O)O)cc1 | 0.38 | –
